Source: patent US6432997B1, “Pyrazole pesticides” (Rhone-Poulenc, Inc., priority 1997, dated 2002)

Legend:
[1] = system: southern armyworm, cotton aphid, tobacco budworm and greenbug; assay: Systemic tests (soil drench / root uptake, systemic evaluation); assay type: in vivo
Protocol: For southern root-knot nematode and systemic tests for southern armyworm, cotton aphid, tobacco budworm and greenbug, a stock solution or suspension was prepared by adding 15 mg of the test compound to 250 mg of dimethylformamide, 1250 mg of acetone and 3 mg of the emulsifier blend referenced above. Water was then added to provide a test compound concentration of 150 ppm. When necessary, sonication was provided to insure complete dispersion.
Southern armyworm on tomato—systemic evaluation: This test was conducted in conjunction with the southern root-knot nematode evaluation (discussed below). The tomato plants, grown in the soil (at an initial compound test screening rate of 6.6 ppm soil concentration or about 150 ppm solution concentration) for nematode evaluation, were then utilized for evaluation of a compound's uptake via roots and subsequent systemic transport to the tomato foliage. […]
Cotton aphid and tobacco budworm (on cotton) and greenbug and tobacco budworm (on sorghum)—systemic evaluation: A 7.0 ml aliquot of the 150 ppm nematode test solution was applied to deliver the equivalent of 10.0 ppm soil concentration dose as a drench to 6 cm pots containing cotton and sorghum plants. […] Again at six days, the plants were rated for aphid activity and the cotton aphids and greenbugs were counted and mortality was assessed. […] Mortality was assessed six days after infestation. […]

Lucilia sericata = conditions: single species; from WO 92/13451 (Schering Agrochemicals Ltd.); cited from earlier work

Substance | activity in the systemic tests [1] | activity against Lucilia sericata (Lucilia sericata)
5-Amino-1-[2,6-dichloro-4-(trifluoromethyl)phenyl]-4-methylsulfinyl-N-hydroxy-N-methyl-1H-pyrazole carboximidamide [Compound 1] | particularly good activity | 
5-Amino-1-[2,6-dichloro-4-(trifluoromethyl)phenyl]-4-trifluoromethylsulfinyl-N-hydroxy-N-methyl-1H-pyrazole carboximidamide [Compound 2] | particularly good activity | 
5-chloro-1-[2,6-dichloro-4-(trifluoromethyl)phenyl]-4-(4,5-1H-pyrazole |  | activity against a single species Lucilia sericata
